Reference: PubChem BioAssay (NCI)
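Each compound was tested at five concentrations against cells in 96-well plates for 48 hours. GI50: concentration for 50% inhibition of growth. The concentration for full growth arrest is given as TGI.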

Experiments:
Experiment in all cases: DTP human tumour cell line panel, 48 h
CAKI-1 renal = tested on: CAKI-1 renal
COLO 205 colon = tested on: COLO 205 colon
SN12C renal = tested on: SN12C renal
HL-60(TB) leukemia = tested on: HL-60(TB) leukemia
OVCAR-8 ovarian = tested on: OVCAR-8 ovarian
SNB-75 CNS = tested on: SNB-75 CNS
SF-268 CNS = tested on: SF-268 CNS
IGROV1 ovarian = tested on: IGROV1 ovarian
SK-OV-3 ovarian = tested on: SK-OV-3 ovarian
SK-MEL-2 melanoma = tested on: SK-MEL-2 melanoma
UACC-62 melanoma = tested on: UACC-62 melanoma
U251 CNS = tested on: U251 CNS
NCI-H460 lung = tested on: NCI-H460 lung
786-0 renal = tested on: 786-0 renal
A498 renal = tested on: A498 renal
NCI/ADR-RES ovarian = tested on: NCI/ADR-RES ovarian
HCT-15 colon = tested on: HCT-15 colon
HS 578T breast = tested on: HS 578T breast
HOP-92 NSCLC = tested on: HOP-92 NSCLC
SF-295 CNS = tested on: SF-295 CNS
NCI-H226 lung = tested on: NCI-H226 lung
KM12 colon = tested on: KM12 colon
SK-MEL-5 melanoma = tested on: SK-MEL-5 melanoma
HT29 colon = tested on: HT29 colon
DU-145 prostate = tested on: DU-145 prostate
UO-31 renal = tested on: UO-31 renal
M14 melanoma = tested on: M14 melanoma
SF-539 CNS = tested on: SF-539 CNS
PC-3 prostate = tested on: PC-3 prostate
OVCAR-5 ovarian = tested on: OVCAR-5 ovarian
MOLT-4 leukemia = tested on: MOLT-4 leukemia
MDA-MB-435 = tested on: MDA-MB-435
RXF 393 renal = tested on: RXF 393 renal
T-47D breast = tested on: T-47D breast
LOX IMVI melanoma = tested on: LOX IMVI melanoma
ACHN renal = tested on: ACHN renal
MALME-3M melanoma = tested on: MALME-3M melanoma
HCC-2998 colon = tested on: HCC-2998 colon
A549 NSCLC = tested on: A549 NSCLC
MCF7 breast = tested on: MCF7 breast
SR leukemia = tested on: SR leukemia
UACC-257 melanoma = tested on: UACC-257 melanoma
SNB-19 CNS = tested on: SNB-19 CNS
SK-MEL-28 melanoma = tested on: SK-MEL-28 melanoma
NCI-H522 lung = tested on: NCI-H522 lung
HOP-62 NSCLC = tested on: HOP-62 NSCLC
K-562 leukemia = tested on: K-562 leukemia
TK-10 renal = tested on: TK-10 renal
BT-549 breast = tested on: BT-549 breast
EKVX NSCLC = tested on: EKVX NSCLC
RPMI-8226 leukemia = tested on: RPMI-8226 leukemia
MDA-MB-231 breast = tested on: MDA-MB-231 breast
HCT-116 colon = tested on: HCT-116 colon
SW-620 colon = tested on: SW-620 colon
OVCAR-4 ovarian = tested on: OVCAR-4 ovarian
NCI-H23 lung = tested on: NCI-H23 lung
OVCAR-3 ovarian = tested on: OVCAR-3 ovarian
CCRF-CEM leukemia = tested on: CCRF-CEM leukemia

`COc1cccc(-c2c(-c3ccccc3)[nH]c(C)c2C(=O)ONC(=O)c2ccccc2)c1` gave a TGI (CAKI-1 renal) of 11.3 µM, a TGI (COLO 205 colon) of 32.6 µM and a TGI (SN12C renal) of 12.8 µM. It also gave a TGI (HL-60(TB) leukemia) of 4.37 µM, a TGI (OVCAR-8 ovarian) of 19.1 µM and a TGI (SNB-75 CNS) of 18.9 µM. The TGI (SF-268 CNS) was 22 µM, the TGI (IGROV1 ovarian) was 3.18 µM and the TGI (SK-OV-3 ovarian) was 29.8 µM. It also gave a TGI (SK-MEL-2 melanoma) of 23.6 µM, a TGI (UACC-62 melanoma) of 26.9 µM and a TGI (U251 CNS) of 11.4 µM. For the same compound, the TGI (NCI-H460 lung) was 11.4 µM, the TGI (786-0 renal) was 15.5 µM and the TGI (A498 renal) was 28.5 µM. It also gave a TGI (NCI/ADR-RES ovarian) of 26 µM, a TGI (HCT-15 colon) of 26.1 µM and a TGI (HS 578T breast) of 24 µM. For the same compound, the TGI (HOP-92 NSCLC) was 4.65 µM, the TGI (SF-295 CNS) was 7.64 µM and the TGI (NCI-H226 lung) was 30.7 µM. The TGI (KM12 colon) was 32.4 µM, the TGI (SK-MEL-5 melanoma) was 23.9 µM and the TGI (HT29 colon) was greater than 45.2 µM. It also gave a TGI (DU-145 prostate) of 11.8 µM, a TGI (UO-31 renal) of 3.49 µM and a TGI (M14 melanoma) of 20 µM. The TGI (SF-539 CNS) was 18.4 µM, the TGI (PC-3 prostate) was 23.9 µM and the TGI (OVCAR-5 ovarian) was 26.2 µM. It also gave a TGI (MOLT-4 leukemia) of 18.2 µM, a TGI (MDA-MB-435) of 13.7 µM and a TGI (RXF 393 renal) of 17.1 µM. The TGI (T-47D breast) was 23.9 µM, the TGI (LOX IMVI melanoma) was 3.91 µM and the TGI (ACHN renal) was 10.9 µM. The TGI (MALME-3M melanoma) was 28.4 µM, the TGI (HCC-2998 colon) was 27.4 µM and the TGI (A549 NSCLC) was 9.59 µM. For the same compound, the TGI (MCF7 breast) was 24 µM, the TGI (SR leukemia) was 15.5 µM and the TGI (UACC-257 melanoma) was 26.6 µM. The TGI (SNB-19 CNS) was 23.8 µM, the TGI (SK-MEL-28 melanoma) was 30.4 µM and the TGI (NCI-H522 lung) was 14.2 µM. For the same compound, the TGI (HOP-62 NSCLC) was 10 µM, the TGI (K-562 leukemia) was 10.4 µM and the TGI (TK-10 renal) was 22.1 µM. For the same compound, the TGI (BT-549 breast) was 18.7 µM, the TGI (EKVX NSCLC) was 23.8 µM and the TGI (RPMI-8226 leukemia) was 29.3 µM. For the same compound, the TGI (MDA-MB-231 breast) was 22.9 µM, the TGI (HCT-116 colon) was 15 µM and the TGI (SW-620 colon) was 40.5 µM. It also gave a TGI (OVCAR-4 ovarian) greater than 24.5 µM, a TGI (NCI-H23 lung) of 25.9 µM and a TGI (OVCAR-3 ovarian) of 22.8 µM. For the same compound, the TGI (CCRF-CEM leukemia) was greater than 27.3 µM.
Compound `COc1cc2c(cc1C)NC(=O)/C2=C\c1c[nH]c2ccccc12` has a GI50 (CAKI-1 renal) of 10.6 µM, a TGI (CAKI-1 renal) of 32.3 µM and a GI50 (COLO 205 colon) of 16.6 µM. It also gave a TGI (COLO 205 colon) greater than 100 µM, a GI50 (SN12C renal) of 11.6 µM and a TGI (SN12C renal) of 27.7 µM. For the same compound, the GI50 (HL-60(TB) leukemia) was 15.9 µM, the TGI (HL-60(TB) leukemia) was 45.5 µM and the GI50 (OVCAR-8 ovarian) was 20.3 µM. The TGI (OVCAR-8 ovarian) was 67.2 µM, the GI50 (SNB-75 CNS) was 4.12 µM and the TGI (SNB-75 CNS) was 22.9 µM. The GI50 (SF-268 CNS) was 12 µM, the TGI (SF-268 CNS) was 36.3 µM and the GI50 (IGROV1 ovarian) was 4.44 µM. For the same compound, the TGI (IGROV1 ovarian) was 33.6 µM, the GI50 (SK-OV-3 ovarian) was 17.3 µM and the TGI (SK-OV-3 ovarian) was 37.7 µM. For the same compound, the GI50 (SK-MEL-2 melanoma) was 4.04 µM, the TGI (SK-MEL-2 melanoma) was 25 µM and the GI50 (UACC-62 melanoma) was 13.3 µM. The TGI (UACC-62 melanoma) was 28.4 µM, the GI50 (U251 CNS) was 13.6 µM and the TGI (U251 CNS) was 37.9 µM. For the same compound, the GI50 (NCI-H460 lung) was 4.93 µM, the TGI (NCI-H460 lung) was 41.9 µM and the GI50 (786-0 renal) was 17.8 µM. It also gave a TGI (786-0 renal) of 49.2 µM, a GI50 (A498 renal) of 11.2 µM and a TGI (A498 renal) of 26.9 µM. The GI50 (NCI/ADR-RES ovarian) was 13 µM, the TGI (NCI/ADR-RES ovarian) was 47.6 µM and the GI50 (HCT-15 colon) was 7.16 µM. It also gave a TGI (HCT-15 colon) of 25.4 µM, a GI50 (HS 578T breast) of 14.5 µM and a TGI (HS 578T breast) of 47.9 µM. It also gave a GI50 (HOP-92 NSCLC) of 10.2 µM, a TGI (HOP-92 NSCLC) of 29.9 µM and a GI50 (SF-295 CNS) of 6.28 µM. It also gave a TGI (SF-295 CNS) of 38 µM, a GI50 (NCI-H226 lung) of 15.1 µM and a TGI (NCI-H226 lung) of 41.6 µM. For the same compound, the GI50 (KM12 colon) was 0.417 µM, the TGI (KM12 colon) was 21.1 µM and the GI50 (SK-MEL-5 melanoma) was 14.9 µM. The TGI (SK-MEL-5 melanoma) was 30.5 µM, the GI50 (HT29 colon) was 5.27 µM and the TGI (HT29 colon) was 55.9 µM. The GI50 (DU-145 prostate) was 15.3 µM, the TGI (DU-145 prostate) was 41.1 µM and the GI50 (UO-31 renal) was 10.4 µM. For the same compound, the TGI (UO-31 renal) was 62.9 µM, the GI50 (M14 melanoma) was 12.7 µM and the TGI (M14 melanoma) was 46.1 µM. The GI50 (SF-539 CNS) was 14 µM, the TGI (SF-539 CNS) was 31.9 µM and the GI50 (PC-3 prostate) was 12.2 µM. The TGI (PC-3 prostate) was 31.5 µM, the GI50 (OVCAR-5 ovarian) was 13.5 µM and the TGI (OVCAR-5 ovarian) was 42.7 µM. For the same compound, the GI50 (MOLT-4 leukemia) was 5.87 µM, the TGI (MOLT-4 leukemia) was 43.5 µM and the GI50 (MDA-MB-435) was 14.3 µM. The TGI (MDA-MB-435) was 43.8 µM, the GI50 (RXF 393 renal) was 7.82 µM and the TGI (RXF 393 renal) was 47.6 µM. It also gave a GI50 (T-47D breast) of 13.2 µM, a TGI (T-47D breast) of 45.8 µM and a GI50 (LOX IMVI melanoma) of 11.4 µM. For the same compound, the TGI (LOX IMVI melanoma) was 29.3 µM, the GI50 (ACHN renal) was 11.5 µM and the TGI (ACHN renal) was 27.3 µM. The GI50 (MALME-3M melanoma) was 15.3 µM, the TGI (MALME-3M melanoma) was 42.3 µM and the GI50 (HCC-2998 colon) was 21.7 µM. It also gave a TGI (HCC-2998 colon) of 71.1 µM, a GI50 (A549 NSCLC) of 28.4 µM and a TGI (A549 NSCLC) greater than 100 µM. For the same compound, the GI50 (MCF7 breast) was 12.4 µM, the TGI (MCF7 breast) was 49.7 µM and the GI50 (SR leukemia) was 8.91 µM. The TGI (SR leukemia) was 42.6 µM, the GI50 (UACC-257 melanoma) was 21.9 µM and the TGI (UACC-257 melanoma) was 43.8 µM. It also gave a GI50 (SNB-19 CNS) of 16.4 µM, a TGI (SNB-19 CNS) of 41.7 µM and a GI50 (SK-MEL-28 melanoma) of 21.7 µM. For the same compound, the TGI (SK-MEL-28 melanoma) was 69.5 µM, the GI50 (NCI-H522 lung) was 12.2 µM and the TGI (NCI-H522 lung) was 28.9 µM. The GI50 (HOP-62 NSCLC) was 17.9 µM, the TGI (HOP-62 NSCLC) was 56.8 µM and the GI50 (K-562 leukemia) was 8.07 µM. The TGI (K-562 leukemia) was 51.5 µM, the GI50 (TK-10 renal) was 14.1 µM and the TGI (TK-10 renal) was 46.5 µM. It also gave a GI50 (BT-549 breast) of 17.4 µM, a TGI (BT-549 breast) of 36.3 µM and a GI50 (EKVX NSCLC) of 10.9 µM. For the same compound, the TGI (EKVX NSCLC) was 29.7 µM, the GI50 (RPMI-8226 leukemia) was 5.95 µM and the TGI (RPMI-8226 leukemia) was 63 µM. For the same compound, the GI50 (MDA-MB-231 breast) was 4.3 µM, the TGI (MDA-MB-231 breast) was 21.5 µM and the GI50 (HCT-116 colon) was 21.1 µM. For the same compound, the TGI (HCT-116 colon) was 90.1 µM, the GI50 (SW-620 colon) was 20.3 µM and the TGI (SW-620 colon) was 53.3 µM. For the same compound, the GI50 (OVCAR-4 ovarian) was 12.3 µM, the TGI (OVCAR-4 ovarian) was 40.5 µM and the GI50 (NCI-H23 lung) was 20.2 µM. The TGI (NCI-H23 lung) was 74.6 µM, the GI50 (OVCAR-3 ovarian) was 15.4 µM and the TGI (OVCAR-3 ovarian) was 62.9 µM. For the same compound, the GI50 (CCRF-CEM leukemia) was 10.3 µM and the TGI (CCRF-CEM leukemia) was greater than 100 µM.
